Drawing on PubChem BioAssay (NCI), this text covers TGI and GI50 for 12 molecules.

Test systems include 786-0 renal; ACHN renal; K-562 leukemia; NCI-H23 lung; RXF 393 renal; SK-OV-3 ovarian; SN12C renal; SR leukemia; UACC-62 melanoma; PC-3 prostate.
Experiment in all cases: NCI tumour cell line growth inhibition, 48 h

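Method: 48-hour compound exposure of cells in 96-well plates, five concentrations, linear interpolation of endpoints. GI50 = concentration required for 50% inhibition of growth. Definition used: TGI = concentration required for complete inhibition of growth.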 A value given as a limit tells only on which side of the number the result lay.

With `O=C(O/N=C1/CCCC/C1=C\c1ccccc1)c1ccccc1`, the TGI is more than 100 µM with 786-0 renal; more than 100 µM in the assay with ACHN renal; 41 µM in the assay with K-562 leukemia; more than 100 µM in the assay on NCI-H23 lung; more than 100 µM with RXF 393 renal; more than 100 µM with SK-OV-3 ovarian. Besides, the TGI with SN12C renal, in the assay with SR leukemia and in the assay with UACC-62 melanoma was more than 100 µM in each case.
As for `O=C1OC(c2ccccc2)=N/C1=C/C=C/c1ccco1`, the TGI in the assay on 786-0 renal, in the assay on ACHN renal, in the assay on K-562 leukemia, in the assay on NCI-H23 lung, in the assay with RXF 393 renal and in the assay on SK-OV-3 ovarian was more than 100 µM throughout. In addition, the TGI in the assay on SN12C renal, in the assay with SR leukemia and with UACC-62 melanoma was more than 100 µM in each case.
Take `COc1ncnc(C2CC2)c1-c1ncc2cnn(Cc3ccc(-c4nc(C(F)(F)F)cn4C(C)C)cc3)c2n1`: the GI50 in the assay on 786-0 renal was 31.4 µM; with ACHN renal, 17.6 µM; in the assay on K-562 leukemia, 13.9 µM; in the assay with NCI-H23 lung it was 21.8 µM; in the assay with PC-3 prostate, 17.5 µM; with RXF 393 renal it was 6.5 µM. Moreover, the GI50 in the assay with SK-OV-3 ovarian was 36.8 µM; in the assay on SN12C renal, 18.6 µM; with SR leukemia, 19.7 µM. Also, the TGI with 786-0 renal is more than 100 µM; in the assay with ACHN renal, 49.2 µM; in the assay on K-562 leukemia it was more than 100 µM; in the assay with NCI-H23 lung, 78 µM; in the assay with PC-3 prostate, more than 100 µM; in the assay with RXF 393 renal, 39.8 µM. In addition, the TGI with SK-OV-3 ovarian, with SN12C renal and in the assay on SR leukemia was more than 100 µM throughout.
Regarding `CC(C)=C[C@@H]1C[C@H](C)[C@H]2CC[C@H](C)C3=C2[C@](O)(OC3=O)[C@]1(C)O`, the GI50 in the assay on 786-0 renal, in the assay with ACHN renal, in the assay on K-562 leukemia, in the assay on PC-3 prostate, in the assay on RXF 393 renal and with SK-OV-3 ovarian was more than 100 µM throughout. The results for the GI50 with SN12C renal, with SR leukemia and in the assay with UACC-62 melanoma were more than 100 µM, more than 100 µM and 99.8 µM, respectively. Moreover, the TGI in the assay with 786-0 renal, in the assay on ACHN renal, with K-562 leukemia, in the assay with PC-3 prostate, in the assay with RXF 393 renal and with SK-OV-3 ovarian was more than 100 µM in each case. The TGI with SN12C renal, in the assay with SR leukemia and with UACC-62 melanoma was more than 100 µM in each case.
For the molecule `C=C(CCCCC)CN1CCCC1[C@@](C)(O)CC(=O)OCC` (stereo not given in full), the TGI in the assay on 786-0 renal, in the assay on ACHN renal, with K-562 leukemia, with NCI-H23 lung, in the assay on RXF 393 renal and with SK-OV-3 ovarian was more than 100 µM in each case. Also, the TGI in the assay with SN12C renal, with SR leukemia and with UACC-62 melanoma was more than 100 µM throughout.
`COC(=O)c1cc2c3ccccc3n(C(C)=O)c2cn1`: the TGI in the assay on 786-0 renal was more than 100 µM; in the assay with ACHN renal it was more than 100 µM; in the assay with K-562 leukemia it was more than 100 µM; with NCI-H23 lung it was more than 100 µM; in the assay with RXF 393 renal, 87.1 µM; with SK-OV-3 ovarian, more than 100 µM. For the same molecule, the TGI in the assay on SN12C renal, in the assay on SR leukemia and in the assay on UACC-62 melanoma was more than 100 µM in each case.
Take `O=C1c2ccccc2C(=O)C1(Cl)C1(S(=O)(=O)O)c2ccccc2-c2ccccc21`: the TGI in the assay on 786-0 renal, in the assay on ACHN renal, in the assay with K-562 leukemia, in the assay on NCI-H23 lung, with RXF 393 renal and in the assay with SK-OV-3 ovarian was more than 100 µM in each case. The TGI with SN12C renal, in the assay on SR leukemia and in the assay on UACC-62 melanoma was more than 100 µM each time.
In the case of `COC(=O)C(C(=O)C(=O)Nc1cccc(OC)c1)c1cnc2ccccc2n1` (stereo not given), the TGI in the assay with 786-0 renal, with ACHN renal, in the assay on K-562 leukemia, in the assay with NCI-H23 lung, in the assay with RXF 393 renal and in the assay with SK-OV-3 ovarian was more than 100 µM each time. In addition, the TGI with SN12C renal, in the assay on SR leukemia and in the assay with UACC-62 melanoma was more than 100 µM in each case.
Take `CCCCOC(=O)C1C(c2ccc(Cl)cc2)NC(c2ccc(Cl)cc2)C(C(=O)OCCCC)S1(=O)=O` (stereo not given): the TGI in the assay on 786-0 renal, with ACHN renal, with K-562 leukemia, with NCI-H23 lung, in the assay on RXF 393 renal and in the assay on SK-OV-3 ovarian was more than 100 µM each time. In addition, the TGI with SN12C renal, in the assay with SR leukemia and in the assay on UACC-62 melanoma was more than 100 µM each time.
As for `COc1ccc(C2S/C(=C\c3ccccc3O)C(=O)N2NC(=O)Cc2ccccc2)cc1` (stereo not given), the TGI in the assay with 786-0 renal, in the assay on ACHN renal, in the assay with K-562 leukemia, with NCI-H23 lung, in the assay on RXF 393 renal and in the assay with SK-OV-3 ovarian was more than 100 µM in each case. In addition, the TGI with SN12C renal, with SR leukemia and in the assay on UACC-62 melanoma was more than 100 µM each time.
In the case of `COC(C)(C)C1=CCC(C)CC1` (stereo not given), the TGI with 786-0 renal, in the assay on ACHN renal, in the assay with NCI-H23 lung, in the assay on PC-3 prostate, in the assay with RXF 393 renal and in the assay on SK-OV-3 ovarian was more than 100 µM in each case. Besides, the TGI in the assay with SN12C renal is more than 100 µM; in the assay with SR leukemia, 78 µM; in the assay with UACC-62 melanoma it was more than 100 µM.
As for `C[C@H]1c2cccc(O)c2C(O)=C2C(=O)[C@]3(O)C(O)=C(C(N)=O)C(=O)[C@@H](N(C)C)[C@@H]3[C@@H](O)[C@@H]21`, the GI50 was 3.26 µM in the assay with 786-0 renal; 3.53 µM in the assay on ACHN renal; 2.99 µM in the assay on NCI-H23 lung; 3 µM in the assay on PC-3 prostate; 3.79 µM in the assay on RXF 393 renal; 3.38 µM in the assay with SK-OV-3 ovarian. For the same molecule, the GI50 in the assay on SN12C renal is 3.06 µM; with SR leukemia, 1.98 µM; in the assay on UACC-62 melanoma, 2.53 µM. Moreover, the TGI turned out to be 12.5 µM in the assay with 786-0 renal; 23.9 µM with ACHN renal; 11.9 µM with NCI-H23 lung; 12.8 µM in the assay on PC-3 prostate; 33.9 µM in the assay on RXF 393 renal; 14.3 µM in the assay with SK-OV-3 ovarian. Further, the TGI came out at 14.5 µM with SN12C renal, 4.67 µM in the assay with SR leukemia and 9.68 µM in the assay on UACC-62 melanoma.
